The record followed here is ChEMBL document CHEMBL4813911 (J Med Chem, 2020).

SMILES strings stand for the structures.

The target in series [1] is T1, Amine oxidase [flavin-containing] B (Homo sapiens, UniProt P27338).
T1 sequence (P27338 whole entry): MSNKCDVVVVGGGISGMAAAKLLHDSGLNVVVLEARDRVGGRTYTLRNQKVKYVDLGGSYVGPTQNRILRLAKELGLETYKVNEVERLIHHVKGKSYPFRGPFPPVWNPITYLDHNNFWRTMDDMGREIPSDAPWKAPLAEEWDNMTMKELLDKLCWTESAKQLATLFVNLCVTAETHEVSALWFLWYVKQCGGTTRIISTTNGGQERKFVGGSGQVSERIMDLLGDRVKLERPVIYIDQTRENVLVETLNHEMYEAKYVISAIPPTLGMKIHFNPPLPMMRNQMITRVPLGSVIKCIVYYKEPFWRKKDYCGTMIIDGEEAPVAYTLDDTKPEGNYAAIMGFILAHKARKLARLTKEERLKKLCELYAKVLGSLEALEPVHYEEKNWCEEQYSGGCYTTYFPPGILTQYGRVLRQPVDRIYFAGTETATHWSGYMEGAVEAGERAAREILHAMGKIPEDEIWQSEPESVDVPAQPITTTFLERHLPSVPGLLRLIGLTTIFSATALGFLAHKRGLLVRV
Briefly: Inhibition of human MAO-B expressed in baculovirus infected BTI insect cells by fluorescence method.

Series [2] addresses T2, Amine oxidase [flavin-containing] A (Homo sapiens, UniProt P21397).
T2 sequence (P21397 whole entry): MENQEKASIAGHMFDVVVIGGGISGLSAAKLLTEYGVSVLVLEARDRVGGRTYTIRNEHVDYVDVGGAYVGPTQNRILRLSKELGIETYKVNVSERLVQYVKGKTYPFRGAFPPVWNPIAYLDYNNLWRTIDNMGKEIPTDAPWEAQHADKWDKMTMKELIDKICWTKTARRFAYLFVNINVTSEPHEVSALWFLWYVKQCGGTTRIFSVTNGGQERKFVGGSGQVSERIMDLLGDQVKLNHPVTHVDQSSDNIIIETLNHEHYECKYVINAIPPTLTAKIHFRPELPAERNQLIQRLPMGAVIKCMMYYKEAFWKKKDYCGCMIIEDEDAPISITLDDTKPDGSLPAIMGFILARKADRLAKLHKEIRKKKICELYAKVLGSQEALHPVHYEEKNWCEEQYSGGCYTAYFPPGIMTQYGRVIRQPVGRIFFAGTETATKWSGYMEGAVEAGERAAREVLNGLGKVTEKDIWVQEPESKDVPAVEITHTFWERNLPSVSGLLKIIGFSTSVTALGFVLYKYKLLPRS
Briefly: Inhibition of human MAO-A expressed in baculovirus infected BTI insect cells by fluorescence method.

For series [3], the target named is T1, Amine oxidase [flavin-containing] B. Briefly: Inhibition of MAO-B (unknown origin) using benzylamine as substrate preincubated for 20 mins followed by substrate addition and measured after 60 mins.
Series [4] deals with MV4-11. Briefly: Antiproliferative activity against human MV4-11 cells incubated for 6 days by MTS assay. To be noted: MV4-11, 144 h. The series is classed as functional, cell-based.
Series [5] deals with Lysine-specific histone demethylase 1A (Homo sapiens, UniProt O60341). Briefly: Inhibition of human LSD1 expressed in Escherichia coli BL21 (DE3) cells using (ARTK(diMe)QTARKSTGGKAPRKQLA peptide as substrate incubated for 30 mins by HRP reagent based fluorescence method.
In series [6] the target is T2, Amine oxidase [flavin-containing] A. Briefly: Inhibition of MAO-A (unknown origin) preincubated for 20 mins using 5-hydroxytryptamine as substrate followed by substrate addition and measured after 60 mins.
Series [7] has as its system HeLa. Briefly: Antiproliferative activity against human HeLa cells after 48 hrs by MTT assay. The series is classed as functional. (In general: Tetrazolium dyes change colour on reduction, which living cells bring about.)
The test system of series [8] is SH-SY5Y. Briefly: Antiproliferative activity against human SH-SY5Y cells after 48 hrs by MTT assay. It is filed as functional.
Series [9] concerns the target T2, Amine oxidase [flavin-containing] A. Briefly: biochemical.
Series [10] has as its target T1, Amine oxidase [flavin-containing] B. Briefly: biochemical.
Series [11] addresses T2, Amine oxidase [flavin-containing] A. Briefly: Inhibition of human MAO-A expressed in expressed in baculovirus infected BTI insect cells using tyramine as substrate by peroxidase-coupled method.
Series [12] concerns the target T1, Amine oxidase [flavin-containing] B. Briefly: biochemical. This is another data set of the same source.
Series [13] concerns the target T3, Lysine-specific histone demethylase 2 (Homo sapiens, UniProt Q8NB78).
T3 sequence (Q8NB78 whole entry): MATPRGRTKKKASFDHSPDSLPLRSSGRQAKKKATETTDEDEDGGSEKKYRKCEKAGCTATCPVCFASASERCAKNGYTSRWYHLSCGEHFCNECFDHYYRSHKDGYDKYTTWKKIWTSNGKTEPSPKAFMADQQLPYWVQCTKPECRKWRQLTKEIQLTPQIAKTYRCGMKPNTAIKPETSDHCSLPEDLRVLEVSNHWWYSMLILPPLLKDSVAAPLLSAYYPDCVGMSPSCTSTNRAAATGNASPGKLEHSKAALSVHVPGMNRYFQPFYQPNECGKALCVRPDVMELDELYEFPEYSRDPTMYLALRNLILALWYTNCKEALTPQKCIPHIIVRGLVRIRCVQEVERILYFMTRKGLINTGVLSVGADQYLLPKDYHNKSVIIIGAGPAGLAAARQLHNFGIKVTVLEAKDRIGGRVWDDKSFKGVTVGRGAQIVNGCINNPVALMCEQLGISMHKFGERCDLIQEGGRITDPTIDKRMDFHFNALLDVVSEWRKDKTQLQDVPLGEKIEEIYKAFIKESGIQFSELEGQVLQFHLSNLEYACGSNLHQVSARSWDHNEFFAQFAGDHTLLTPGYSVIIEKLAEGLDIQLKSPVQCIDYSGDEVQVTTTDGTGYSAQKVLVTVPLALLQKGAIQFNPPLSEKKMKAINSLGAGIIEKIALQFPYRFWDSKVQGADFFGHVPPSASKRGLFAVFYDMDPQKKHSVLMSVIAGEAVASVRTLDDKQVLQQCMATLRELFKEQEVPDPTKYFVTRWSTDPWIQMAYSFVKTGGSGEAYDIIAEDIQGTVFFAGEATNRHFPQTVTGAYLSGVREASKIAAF
Briefly: Inhibition of LSD2 (unknown origin) using Lys4-dimethylated H3 (1-20) peptide as substrate incubated for 30 mins by peroxidase-coupled assay.

Series [14] addresses T2, Amine oxidase [flavin-containing] A. Briefly: Inhibition of human MAO-A expressed in baculovirus infected BTI insect cells using tyramine as substrate incubated for 30 mins by peroxidase-coupled assay.
Series [15] concerns KYSE-150 cell line. Briefly: Antiproliferative activity against human KYSE150 cells after 48 hrs by MTT assay. It is filed as functional.
The test system of series [16] is HCT-116. Briefly: Antiproliferative activity against human HCT116 cells after 48 hrs by MTT assay. It is filed as functional.
The subject of series [17] is PC-3. Briefly: Antiproliferative activity against human PC-3 cells after 48 hrs by MTT assay. It is filed as functional.
Series [18] addresses T1, Amine oxidase [flavin-containing] B. Briefly: biochemical. The source holds these as a separate data set.
Series [19] concerns the target T4, MAO-A (Homo sapiens, UniProt P21397).
T4 sequence (P21397 whole entry): T2 sequence (P21397 whole entry)
Briefly: Inhibition of human recombinant MAO-A expressed in Pichia pastoris using kynuramine as substrate at 100 uM by horseradish peroxidase coupled-assay relative to control. To be noted: probe kynuramine.

Series [20] relates to NB-4. Briefly: Antiproliferative activity against human NB4 cells incubated for 48 hrs by CellTiter-Fluor cell viability assay. The series is classed as functional, cell-based. To be noted: NB-4, 48 h.
Series [21] deals with T5, MAO-B (Homo sapiens, UniProt P27338).
T5 sequence (P27338 whole entry): T1 sequence (P27338 whole entry)
Briefly: Inhibition of human recombinant MAO-B expressed in Pichia pastoris using benzylamine as substrate at 100 uM by horseradish peroxidase coupled-assay relative to control. The conditions noted are these: probe benzylamine.

The subject of series [22] is MV4-11. Briefly: Antiproliferative activity against human MV4-11 cells incubated for 48 hrs by CellTiter-Fluor cell viability assay. It is filed as functional, cell-based. To be noted: MV4-11, 48 h.
Series [23] concerns the target T2, Amine oxidase [flavin-containing] A.

For orientation: IC50 means the concentration that inhibits the measured activity by half. The low end stands for greater potency, the high end for weaker potency. With `COc1ccc(Br)cc1CNC1CC12CCc1ccccc12` (stereo not drawn), the IC50 in [1] is 1.2 µM; in series [2] it was 3.7 µM.
On to `CCN(CC)S(=O)(=O)c1ccc([C@H]2C[C@@H]2N)cc1`, for which the half-maximal inhibitory concentration (IC50) was 0.898 µM in series [3], more than 30 µM in [4], 0.123 µM in series [5] and 0.806 µM in series [6].
For the compound `COc1ccc(CNC2CC23CCc2ccccc23)c(Cl)c1OC` (stereo not drawn), the concentration for half-maximal inhibition (IC50) in [1] was determined as 7 µM; in series [2], 5 µM.
The corresponding values for `COc1ccccc1CNC1CC12CCc1ccccc12` (stereo not drawn) are 12 µM and 5.9 µM.
For orientation: GI50 means the concentration giving 50% growth inhibition. Low readings indicate more potent growth inhibition, high ones less potent growth inhibition. Take `O=C(N[C@@H](CCCCNC1CC1c1ccccc1)C(=O)NCc1ccccc1)c1ccc(-c2ccccc2)cc1` (stereo partly drawn): the GI50 in [7] was 10 µM; in series [8], more than 3.3 µM. The same compound came in with an IC50 in series [9] of 87 µM.
As to `CCN(CC)S(=O)(=O)c1ccc([C@H]2C[C@@H]2NCc2ccccc2)cc1`, the IC50 came to 0.702 µM in series [3], 15.4 µM in [4] and 0.525 µM in series [6].
What is called Ki is the equilibrium dissociation constant of an inhibitor or competing ligand from its target. Regarding `NC1CC1c1cccc(F)c1OCc1ccccc1` (stereo not drawn), the inhibition constant Ki in series [10] is 42 µM; in [11] it was 64 µM.
Regarding `NC1CC1c1cc(F)cc(F)c1OCc1ccccc1` (stereo not drawn), the Ki in series [12] was 33 µM; in series [13] it was more than 250 µM; in [14], 71 µM.
On the same counts, the results for `CN1CCN(C(=O)CNC2CC2c2cc(F)cc(F)c2OCc2ccccc2)CC1` (stereo not drawn) are more than 250 µM, more than 250 µM and more than 250 µM.
Turning to `O=C(N[C@@H](CCCCNC1CC1c1ccccc1)C(=O)NCc1ccccc1)c1ccccc1` (stereo partly drawn), the 50% growth inhibitory concentration (GI50) in series [7] was 35 µM; in series [8], 17 µM.
The corresponding values for `O=C(N[C@@H](CCCCNC1CC1c1ccccc1)C(=O)NCc1cccc(C(F)(F)F)c1)c1ccc(-c2ccccc2)cc1` (stereo partly drawn) are 4.1 µM and 2.4 µM.
Consider `NC1CC1c1c(F)c(F)c(F)c(F)c1F` (stereo not drawn), for which the Ki was 8.3 µM in series [10] and 270 µM in series [11].
In the case of `Fc1ccccc1CNC1CC12CCc1ccccc12` (stereo not drawn), the IC50 in [1] is 32 µM; in series [2], 2.5 µM.
For `NC1CC1c1ccc(OCC[C@H](NC(=O)c2ccccc2)C(=O)NCc2ccccc2)cc1` (stereo partly drawn), the GI50 in series [7], in series [15], in [8], in series [16] and in series [17] was 6 µM in each case. In addition, the half-inhibitory concentration (IC50) in series [9] was 290 µM; in [18] it was more than 1000 µM.
In general, inhibition refers to the percentage by which the read-out fell short of the control. For the compound `NC1CC1c1ccc(NC(=O)c2ccc(NC(=O)OCc3ccccc3)cc2)cc1` (stereo not drawn), the inhibition at 100 µM in series [19] worked out at 37%; in [21], 8%. Besides, the half-inhibitory concentration (IC50) in series [20] came out at 0.6 µM; in series [22] it was 0.4 µM.
As for `CCN(CC)S(=O)(=O)c1ccc([C@H]2C[C@@H]2NC(=O)OC(C)(C)C)cc1`, the half-maximal inhibitory concentration (IC50) was 0.655 µM in series [3], 4.9 µM in series [4], more than 1 µM in series [5] and 0.708 µM in series [6].
The compound `CN1CCN(C(=O)CN[C@@H]2C[C@H]2c2ccc(OCc3ccccc3)cc2)CC1` showed an IC50 in series [23] of 0.51 µM.
`NC1CC1c1cccc(OCC[C@H](NC(=O)c2ccccc2)C(=O)NCc2ccccc2)c1` (stereo partly drawn): the GI50 in [7], in series [15], in series [8], in series [16] and in [17] was 6 µM each time.
